pIC50, pKi: −log10 of the molar value.
Columns and labels:
Rattus norvegicus = organism: Rattus norvegicus; test: Ratio of Ki for rat sigma 2 receptor to Ki for rat sigma 1 receptor
D(3) dopamine receptor [1] = target: T1, D(3) dopamine receptor (Homo sapiens, UniProt P35462); test: Displacement of [3H]N-methylspiperone from human D3 receptor expressed in HEK cells at 10 uM; type: cell-based; settings: HEK293
D(2) dopamine receptor [2] = target: T2, D(2) dopamine receptor (Homo sapiens, UniProt P14416); test: Displacement of [3H]N-methylspiperone from human D2 receptor expressed in HEK cells; type: cell-based, HEK293
D(2) dopamine receptor [3] = target: T2, D(2) dopamine receptor; test: Displacement of [3H]N-methylspiperone from human D2 receptor expressed in HEK cells at 10 uM; type: cell-based; settings: HEK293
[4] = target: Sigma non-opioid intracellular receptor 1 (Rattus norvegicus, UniProt Q9R0C9); test: Displacement of [3H](+)-pentazocine from sigma 1 receptor in rat brain homogenate; type: tissue-based
D(3) dopamine receptor [5] = target: T1, D(3) dopamine receptor; test: Displacement of [3H]N-methylspiperone from human D3 receptor expressed in HEK cells; type: cell-based, HEK293
[6] = Displacement of [3H]DTG from sigma 2 receptor in rat brain homogenate; type: tissue-based
D(1B) dopamine receptor = D(1B) dopamine receptor (Homo sapiens, UniProt P21918); test: Displacement of [3H][…] from human D5 receptor expressed in HEK cells; type: cell-based, HEK293
D(4) dopamine receptor = target: T3, D(4) dopamine receptor (Homo sapiens, UniProt P21917); test: Displacement of [3H]N-methylspiperone from human D4 receptor expressed in HEK cells; type: cell-based, HEK293
T3 sequence (P21917 whole entry): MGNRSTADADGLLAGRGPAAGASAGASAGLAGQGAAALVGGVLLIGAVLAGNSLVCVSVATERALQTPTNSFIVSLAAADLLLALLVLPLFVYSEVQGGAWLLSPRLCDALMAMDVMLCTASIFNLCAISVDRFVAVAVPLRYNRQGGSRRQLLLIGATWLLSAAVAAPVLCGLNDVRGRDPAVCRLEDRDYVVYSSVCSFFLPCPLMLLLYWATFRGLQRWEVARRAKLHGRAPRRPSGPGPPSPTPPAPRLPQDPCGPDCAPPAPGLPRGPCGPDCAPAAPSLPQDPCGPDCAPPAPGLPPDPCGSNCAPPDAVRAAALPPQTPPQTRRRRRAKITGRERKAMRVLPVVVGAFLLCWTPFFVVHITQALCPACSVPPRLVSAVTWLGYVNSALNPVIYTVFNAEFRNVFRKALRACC

D(1A) dopamine receptor = D(1A) dopamine receptor (Homo sapiens, UniProt P21728); test: Displacement of [3H][…] from human D1 receptor expressed in HEK cells; type: cell-based, HEK293
D(1A) dopamine receptor, sequence (P21728 whole entry): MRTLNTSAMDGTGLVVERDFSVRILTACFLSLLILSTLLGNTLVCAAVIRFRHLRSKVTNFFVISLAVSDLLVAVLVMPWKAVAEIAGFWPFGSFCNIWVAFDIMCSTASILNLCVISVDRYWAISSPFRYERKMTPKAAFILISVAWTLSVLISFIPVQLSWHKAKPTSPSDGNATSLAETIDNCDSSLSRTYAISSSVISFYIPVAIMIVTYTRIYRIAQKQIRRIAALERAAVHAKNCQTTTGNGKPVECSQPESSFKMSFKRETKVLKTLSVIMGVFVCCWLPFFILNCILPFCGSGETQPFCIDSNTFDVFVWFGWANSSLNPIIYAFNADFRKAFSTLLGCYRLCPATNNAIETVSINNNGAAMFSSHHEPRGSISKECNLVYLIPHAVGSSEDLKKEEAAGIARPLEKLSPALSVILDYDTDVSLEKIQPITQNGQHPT

T2 sequence (P14416 whole entry): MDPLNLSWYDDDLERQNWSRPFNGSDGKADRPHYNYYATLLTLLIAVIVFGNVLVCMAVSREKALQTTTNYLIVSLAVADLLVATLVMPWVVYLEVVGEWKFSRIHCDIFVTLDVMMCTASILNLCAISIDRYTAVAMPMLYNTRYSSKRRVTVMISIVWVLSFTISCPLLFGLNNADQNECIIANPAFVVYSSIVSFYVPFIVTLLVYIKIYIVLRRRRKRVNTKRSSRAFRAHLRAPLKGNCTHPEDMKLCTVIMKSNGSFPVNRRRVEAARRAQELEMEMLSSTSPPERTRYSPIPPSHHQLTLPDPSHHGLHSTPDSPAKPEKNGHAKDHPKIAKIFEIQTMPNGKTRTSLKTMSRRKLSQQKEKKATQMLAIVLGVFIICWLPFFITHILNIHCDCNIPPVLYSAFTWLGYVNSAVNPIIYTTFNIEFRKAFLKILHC
Sigma non-opioid intracellular receptor 1, sequence (Q9R0C9 whole entry): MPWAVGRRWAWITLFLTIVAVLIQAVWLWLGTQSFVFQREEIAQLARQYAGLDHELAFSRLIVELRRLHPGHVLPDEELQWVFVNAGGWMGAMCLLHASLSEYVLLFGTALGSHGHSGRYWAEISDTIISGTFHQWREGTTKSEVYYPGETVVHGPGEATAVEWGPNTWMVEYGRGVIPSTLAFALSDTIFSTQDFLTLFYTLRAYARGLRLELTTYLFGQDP
T1 sequence (P35462 whole entry): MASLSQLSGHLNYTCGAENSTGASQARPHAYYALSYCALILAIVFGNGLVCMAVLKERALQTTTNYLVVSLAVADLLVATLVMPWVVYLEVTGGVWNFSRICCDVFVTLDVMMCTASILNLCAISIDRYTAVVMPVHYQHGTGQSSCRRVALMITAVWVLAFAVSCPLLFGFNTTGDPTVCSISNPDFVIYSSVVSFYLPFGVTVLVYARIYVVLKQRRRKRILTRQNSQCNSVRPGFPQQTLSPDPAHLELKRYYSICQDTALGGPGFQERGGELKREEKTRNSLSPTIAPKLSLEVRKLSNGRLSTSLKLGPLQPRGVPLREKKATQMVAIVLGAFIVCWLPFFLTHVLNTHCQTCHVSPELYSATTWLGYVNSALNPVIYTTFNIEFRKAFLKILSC
D(1B) dopamine receptor, sequence (P21918 whole entry): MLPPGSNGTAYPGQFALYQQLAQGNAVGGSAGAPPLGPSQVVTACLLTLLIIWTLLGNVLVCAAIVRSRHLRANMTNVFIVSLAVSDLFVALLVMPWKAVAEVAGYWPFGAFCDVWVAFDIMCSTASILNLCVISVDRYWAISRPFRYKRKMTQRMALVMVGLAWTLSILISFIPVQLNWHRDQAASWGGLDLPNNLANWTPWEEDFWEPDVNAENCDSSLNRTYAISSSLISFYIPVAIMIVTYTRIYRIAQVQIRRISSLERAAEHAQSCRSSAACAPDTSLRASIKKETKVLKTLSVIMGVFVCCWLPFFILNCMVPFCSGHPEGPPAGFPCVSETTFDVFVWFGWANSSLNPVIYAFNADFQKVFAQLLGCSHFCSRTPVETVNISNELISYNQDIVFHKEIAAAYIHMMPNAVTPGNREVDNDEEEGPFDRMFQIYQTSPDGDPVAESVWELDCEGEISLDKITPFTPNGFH

| SMILES | Ratio Ki (Rattus norvegicus) | pKi (D(2) dopamine receptor [2]) | Activity (D(2) dopamine receptor [3]) [%] | pKi [4] | pKi (D(3) dopamine receptor [5]) | pKi [6] | pKi (D(1A) dopamine receptor) | further results |
| --- | --- | --- | --- | --- | --- | --- | --- | --- |
| COc1ccc(C)cc1C(=O)NCCN1C2C3C4CC5C6C4C2C6C1(O)C53 (stereo not given) | 30 | < 5.00 | < 50 | 8.12 | < 5.00 | 6.65 | – | Activity (D(3) dopamine receptor [1]): < 50% |
| O=C(CCCN1C2C3C4CC5C6C4C2C6C1(O)C53)c1ccc(F)cc1 (stereo not given) | – | 5.76 | – | 7.57 | 5.71 | 7.26 | 6.68 | pKi (D(1B) dopamine receptor): < 5.00; pKi (D(4) dopamine receptor): 7.03 |
| COc1ccc(CCN2C3C4C5CC6C7C5C3C7C2(O)C64)cc1OCCc1ccccc1 (stereo not given) | 4.7 | < 5.00 | < 50 | 7.70 | – | 7.03 | < 5.00 | – |
| CCCN(CCC)CCc1ccc(OC)c(OCCc2ccccc2)c1 | – | – | – | – | – | 6.67 | – | pIC50 (D(2) dopamine receptor [2]): < 5.00; pIC50 (D(1A) dopamine receptor): < 5.00 |
| COc1cc2c(cc1OC)CN(CCNC(=O)c1cc(C)ccc1OC)CC2 | – | – | – | – | – | 7.88 | – | – |
| O=C(CCCN1CCC(O)(c2ccc(Cl)cc2)CC1)c1ccc(F)cc1 [HALOPERIDOL] | – | – | – | – | – | 8.10 | – | – |
